From patent US8158655B2, “Sulfonamide derivatives” (Hoffmann-La Roche Inc., priority 2007, dated 2012)
Where two headings read alike, the source gives them in different places.

Target: T1, Chymase purified from human skin mast cells (Homo sapiens, UniProt P23946)
T1 construct: Chymase purified from human skin mast cells was obtained from Calbiochem; purchased Calbiochem (Merck Biosciences, San Diego, Calif., USA); host or cells: human skin mast cells (natural source)
T1 sequence (P23946 22-247): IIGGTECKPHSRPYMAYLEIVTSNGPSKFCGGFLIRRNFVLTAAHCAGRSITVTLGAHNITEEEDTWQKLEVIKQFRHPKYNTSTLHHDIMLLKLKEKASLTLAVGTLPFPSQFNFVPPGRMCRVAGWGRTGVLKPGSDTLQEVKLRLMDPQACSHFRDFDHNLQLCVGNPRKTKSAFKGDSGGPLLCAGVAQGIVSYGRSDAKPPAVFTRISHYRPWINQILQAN
Assay: chymase peptide substrate assay (AAPF-AMC fluorescence)
Assay type: biochemical
Experimental: The peptide was synthesized with a purity of 95% from Bachem, Bubendorf, Switzerland). Chymase purified from human skin mast cells was obtained from Calbiochem (Merck Biosciences, San Diego, Calif., USA). The assay buffer was 0.15 M NaCl, 0.05M, Tris HCl, 0.05% CHAPS (3-[(3-Cholamidopropyl)-dimethylammonio]-1-propane sulphonate), 0.1 mg/ml Heparin (Heparin sodium, Sigma, porcine intestinal mucosa), 0.02 mM AAPF-substrate, 1 nM Chymase at pH 7.4. The assay was performed in 96-well plates (Packard Optiplate), with a 0.05 ml volume at room temperature. Chymase activity was indicated by the initial rate of increase in fluorescence at 340/440 nm (excitation/emission) from free 7-amino-4-methylcoumarin released from the substrate. Inhibition of the activity by inhibitory compounds was read after 30 min pre-incubation with the chymase at room temperature in assay buffer without AAPF-substrate. The assay was then started by addition of the indicated concentration of AAPF-substrate.

[1] = 0.02 mM AAPF-substrate, 1 nM Chymase, pH 7.4, room temperature, 30 min pre-incubation, read-out: IC50

Cc1c(S(=O)(=O)Nc2ccc(C3CCNCC3)cc2S(C)(=O)=O)sc2ccc(F)cc12 [Example 21, 5-Fluoro-3-methyl-benzo[b]thiophene-2-sulfonic acid(2-methanesulfonyl-4-piperidin-4-yl-phenyl)-amide]
IC50 [1]: 3 nM

Cc1c(S(=O)(=O)Nc2ccc(-c3ccncc3)cc2C(F)(F)F)sc2ccc(F)cc12 [Example 2, 5-Fluoro-3-methyl-benzo[b]thiophene-2-sulfonic acid(4-pyridin-4-yl-2-trifluoromethyl-phenyl)-amide]
IC50: 35 nM

CCc1cc(-c2ccncc2)ccc1NS(=O)(=O)c1sc2ccc(F)cc2c1C [Example 16, 5-Fluoro-3-methyl-benzo[b]thiophene-2-sulfonic acid(2-ethyl-4-pyridin-4-yl-phenyl)-amide]
IC50 [1]: 106 nM
